From US7452687B2 (Asahi Kasei Pharma Corporation, priority 2002, dated 2008)
“Also recorded” adds a separate entry of the source. Like-named read-outs stand apart in the source and are kept apart here.

Key:
[1] = system: myo-inositol dehydrogenase derived from the strain F.sp.671; test: Relative activity assay (initial velocity with each coenzyme or substrate); assay type: biochemical, Flavobaterium sp. 671; conditions: for Substrate specificity (enzyme activity for each substrate): coenzyme NAD, substrate 20 mM, pH 10.0, 37° C., initial velocity to myo-inositol as 100%; for Relative activity ratio for each coenzyme used: substrate 20 mM myo-inositol, coenzyme 2 mM, 100 mM glycine buffer pH 10.0, 37° C., NAD as 100%
Description: The relative activities were determined with the coenzyme changed according to the following method. Relative Activity Assay <Composition of Reaction Solution> • Buffer: 100 mM glycine buffer (pH 10.0) • Substrate: 20 mM myo-inositol (Sigma, Co., Ltd.) • Coenzyme: 2 mM (NAD, thio-NAD, NADP, thio NADP; Oriental Yeast Co., Ltd.) One ml of the above reaction solution is added to a quartz cell. Then, the quartz cell is placed in a spectrophotometer adjusted at a temperature of 37° C. The cell is incubated for 5 minutes or more and then 20 μl of an enzyme solution of about 1.0 U/ml is added thereto and mixed. The initial velocity is obtained from an absorbance change per minute at a wavelength peculiar to each reduced coenzyme. The initial velocity obtained with each coenzyme is compared with the initial velocity (100%) obtained using NAD as a coenzyme to provide the relative activity. According to the relative activity assay described above, the measurement was performed using the same concentration of D-chiro-inositol, D-mannose, D-fructose, D-galactose, mannitol, epi-inositol, or scyllo-inositol in place of the substrate in the reaction solution. […] The substrates used include D-mannose, D-fructose, D-galactose, mannitol, D-chiro-inositol (as above: Wako Pure Chemical Industries, Ltd.), myo-inositol, epi-inositol, and scyllo-inositol (as above: Sigma, Co., Ltd.). Following the relative activity assay described above, the measurement was performed using each of 100 mM tris buffer (pH 7.0-9.0) and 100 mM glycine buffer (pH 9.0-11.0) in place of 100 mM of pH 10.0 glycine buffer in the reaction solution. […] Using the relative activity assay described above, the concentration of myo-inositol and the concentrations of NAD and thio-NAD were changed to determine Km values respectively. Using the activity assay described above, the substrate concentration was changed to calculate the Km value.

[2] = system: myo-inositol dehydrogenase; test: Study on buffers in reagents for myo-inositol quantitative determination (acceleration stability test of R-2 reagent); conditions: 100 mM buffer pH 8.8; R-2 stored at 30° C. for 20 days, tested on 7th, 12th, 20th days
[3] = system: myo-inositol dehydrogenase; conditions: pH 8.8

Molecule: OC[C@@H](O)[C@@H](O)[C@H](O)[C@H](O)CO [Mannitol, mannitol]
- Substrate specificity (enzyme activity for each substrate) [1]: 0%

Molecule: O=C(O)CNC(CO)(CO)CO [Tricine, N-Tris(hydroxymethyl)methylglycine]
- Stability of sensitivity of R-2 reagent by buffer, in comparison to the standard solution [2]: stable sensitivity

Molecule: O[C@H]1[C@H](O)[C@@H](O)[C@H](O)[C@@H](O)[C@H]1O [myo-Inositol, myo-inositol]
- Substrate specificity (enzyme activity for each substrate) [1]: 100%
- Km ([1]; substrate concentration changed, read-out: Km value for substrate): 1.7 ± 0.2 mM

Molecule: OC1C(O)C(O)C(O)C(O)C1O (stereo not drawn) [epi-Inositol, epi-inositol]
- Substrate specificity (enzyme activity for each substrate) [1]: 2%

Molecule: O=C[C@H](O)[C@@H](O)[C@@H](O)[C@H](O)CO [Galactose, D-galactose]
- Substrate specificity (enzyme activity for each substrate) [1]: less than 1%

Molecule: NC(=S)c1ccc[n+]([C@@H]2O[C@H](COP(=O)([O-])OP(=O)(O)OC[C@H]3O[C@@H](n4cnc5c(N)ncnc54)[C@H](O)[C@@H]3O)[C@@H](O)[C@H]2O)c1 [Thio-NAD, thio-nicotinamide adenine dinucleotide]
- Km ([1]; coenzyme concentration changed, read-out: Km value for coenzyme): 4.5 ± 1 mM
- Relative activity ratio for each coenzyme used [1]: 29%

Molecule: O=C(O)CN(CCO)CCO [Bicine, N,N-Bis(hydroxyethyl)glycine]
- Stability of sensitivity of R-2 reagent by buffer, in comparison to the standard solution [2]: stable sensitivity; also recorded: most stable sensitivity

Molecule: Tris(hydroxymethyl)aminomethane
- Stability of sensitivity of R-2 reagent by buffer, in comparison to the standard solution [3]: stable sensitivity

Molecule: NC(=S)c1ccc[n+]([C@@H]2O[C@H](COP(=O)([O-])OP(=O)(O)OC[C@H]3O[C@@H](n4cnc5c(N)ncnc54)[C@H](OP(=O)(O)O)[C@@H]3O)[C@@H](O)[C@H]2O)c1 [Thio-NADP, thio-nicotinamide adenine dinucleotide phosphate]
- Relative activity ratio for each coenzyme used [1]: 0%

Molecule: O=C(CO)[C@@H](O)[C@H](O)[C@H](O)CO [Fructose, D-fructose]
- Substrate specificity (enzyme activity for each substrate) [1]: less than 1%

Molecule: nicotinamide adenine dinucleotide phosphate [NADP]
- Relative activity ratio for each coenzyme used [1]: 8%

Molecule: OC1C(O)C(O)C(O)C(O)C1O [chiro-Inositol, D-chiro-inositol]
- Substrate specificity (enzyme activity for each substrate) [1]: 18%

Molecule: O[C@H]1[C@H](O)[C@@H](O)[C@H](O)[C@@H](O)[C@@H]1O [scyllo-Inositol, scyllo-inositol]
- Substrate specificity (enzyme activity for each substrate) [1]: less than 1%
